According to patent publication US4933349A, “Treating agent for heart failure” (Daiichi Seiyaku Co., Ltd., priority 1987, dated 1990):
Entries after “also recorded” stand apart in the source; their conditions may differ. Counter-ions that a name gives are not always drawn.

Assays:
[1] = test system: Monocrotaline-Induced Heart Failure Model (Heart Failure induced by Pulmonary Hypertension); experiment: Efficacy in Monocrotaline-induced heart failure model (heart failure induced by pulmonary hypertension); format: in vivo, SD-SLC male rats
Protocol: Efficacy in Monocrotaline-Induced Heart Failure Model (A Model of Heart Failure induced by Pulmonary Hypertension)
SD-SLC male rats (body weight: 160 to 190 g) were used. Monocrotaline was dissolved in 1N hydrochloric acid, and the solution was adjusted to a pH of 7.4 with a 1N sodium hydroxide aqueous solution. Distilled water was added thereto to make a 40 mg/ml solution. The solution was subcutaneously administered to the rats at a dose of 40 mg/kg to prepare right ventricular insufficient rats.
Another group of rats was subcutaneously administered with 1 ml/kg of physiological saline only and served as intact control.
Compound A was dissolved in distilled water. Six hours from the administration of Monocrotaline, the solution was orally administered to the test animals at a single daily dose of 10 mg/kg for consecutive 1 month (6 days per week). As a control group, the right ventricular insufficient rats orally received 5 ml/kg of distilled water only.
On the next day of the final administration of Compound A, a catheter was inserted into the right ventricle under anesthesia with pentobarbital (50 mg/kg, i.p.), and the right ventricular systolic pressure was measured. Thereafter, the heart was excised, divided into the left ventricle (including the septum) and the right ventricle, and the wet weight of each ventricle was determined. The results obtained are given in Table 3, as expressed as mean±S.E.

[2] = test system: Heart Failure induced by Myocardial Infarction; experiment: Efficacy in heart failure induced by myocardial infarction (left coronary artery ligation), hemodynamic measurements and ventricle weight; format: in vivo, SD-SLC male rats
Protocol: Efficacy in Heart Failure induced by Myocardial Infarction SD-SLC male rats (body weight: 272 to 315 g) (purchased from Shizuoka Jikken Dobutsu Kyodo Kumiai) were used as test animals. Intercostal thoracotomy was made on the left chest of the rat anesthesized with pentobarbital (50 mg/kg, i.p.). The left coronary artery was then ligated at the position 2 to 3 mm away from its origin according to the method of Selye et al, Angiology, Vol. 11, 398 (1960). Immediately after confirming that the peripheral cardiac muscle of the open chest rat was involved in ischemia, the opening was closed, and the animal was fed on food and tap water ad lib. As a sham operation group, another group of rats received thoracotomy in the same manner as described above except for carrying out no ligation of the coronary artery. […] A control group orally received 5 ml/kg/day of ion-exchanged water only. On the next day of the final administration of Compound A, a catheter was inserted into the femoral artery and the left ventricle of the rat under anesthesia with Inactin (100 mg/kg, i.p.), and systemic mean blood pressure, maximum rate of increase of the intraventricular pressure (LV dp/dt max), contractile index (LV dp/dt max/p), left ventricular systolic pressure, left ventricular diastolic pressure and heart rate were measured. After completion of these measurements, the heart was excised and divided into the left ventricle (including the septum) and the right ventricle. The wet weight of each ventricle was measured.

rats = experiment: Acute toxicity in rats (LD50), oral or intravenous; format: in vivo
Description: Acute toxicities of Compound A in rats through oral administration or intravenous injection were as follows.

[3] = 10 mg/kg p.o. daily, 6 times per week, 1 month, mean±S.E., n = 7
[4] = 10 mg/kg p.o. daily, 6 times per week, 1 month, mean±S.E., n = 7, ** P < 0.01 vs sham, # P < 0.05 vs control group
[5] = coronary artery ligation, 1 month
[6] = wet weight after 10 mg/kg p.o. daily, 1 month, mean±S.E., n = 7, * P < 0.05 vs control group

## O=C(O)c1ccc2c(c1)CCC(Cn1ccnc1)C2 (stereo not shown) [Compound A, 6-(1-Imidazolylmethyl)-5,6,7,8-tetrahydronaphthalene-2-carboxylic acid hydrochloride hemihydrate]
[1]; 10 mg/kg p.o. daily, 6 days per week, 1 month, mean±S.E., N = 7, * P < 0.05 vs intact control, # P < 0.05 vs control group
  Right Ventricular Systolic Pressure: 46.9 ± 4.9 mmHg
[1]; 10 mg/kg p.o. daily, 6 days per week, 1 month, mean±S.E., N = 7, ** P < 0.01 vs intact control group
  Right Ventricle Weight/Left Ventricle Weight: 0.41 ± 0.04
[1]; Monocrotaline, 1 month
  Right ventricular hypertrophy / cardiac hypertrophy (result in words): showed a tendency to inhibit the right ventricular hypertrophy
  Right ventricular systolic pressure (result in words): significantly inhibited the increase in the right ventricular systolic pressure
[1]; long-term administration
  Improvement of heart failure induced by pulmonary hypertension (result in words): exhibited improvements of heart failure induced by pulmonary hypertension
[2]; [3]
  Heart Rate: 399 ± 14 min⁻¹
  Mean Blood Pressure: 132 ± 5 mmHg
[2]; 10 mg/kg p.o. daily, 6 times per week, 1 month, mean±S.E., n = 7, * P < 0.05 vs sham operation group
  Left Ventricular Systolic Pressure: 143 ± 6 mmHg
[2]; [4]
  Contractile Index (LV dp/dt max/p): 79 ± 5 s⁻¹
  Left Ventricular Diastolic Pressure: 12.0 ± 3.2 cmH2 O
[2]; [5]
  Contractile index (result in words): inhibition on reduction of contractile index
  Left ventricular diastolic pressure (result in words): inhibition on reduction of contractile index and on elevation of left ventricular diastolic pressure was observed
[2]; coronary artery ligation, 1 month, hydrochloride hemihydrate
  Ventricle weight / cardiac hypertrophy (result in words): increase of the ventricle weight can be suppressed significantly; also recorded: inhibit cardiac hypertrophy
[2]; long-term administration
  Blood pressure (result in words): without adversely affecting the blood pressure
  Cardiac contractility and pressure load to the heart (result in words): improved reduction of cardiac contractility and relieved pressure load to the heart
[2]; wet weight after 10 mg/kg p.o. daily, 1 month, mean±S.E., n = 7
  Weight of Ventricle, Right: 0.361 ± 0.028 g
[2]; [6]
  Weight of Ventricle, Left: 0.861 ± 0.029 g
  Weight of Ventricle, Total: 1.222 ± 0.052 g
rats; female rats, i.v.
  LD50: 783 mg
rats; female rats, p.o.
  LD50: 1994 mg
rats; male rats, i.v.
  LD50: 807 mg
rats; male rats, p.o.
  LD50: 2438 mg
